Results on five compounds are retold here after patent US8513219B2, “Substituted phosphonates and their use in decreasing amyloid aggregates” (Queen Mary & Westfield College, University of London, priority 2007, dated 2013).

Data set [1] relates to L929 immortalised fibroblast cell line. Nature of the data set: MTT colorimetric toxicity assay in L929 fibroblast cell line. Type of data set: cell-based. The note with it: L929, 0.3 nM to 1 μM, up to 24 h exposure. How it is done:
A first assessment of the potential toxicity of the substituted phosphonates was carried out in a non-neuronal cell line, using a tetrazolium salt (MTT) colorimetric assay, based on the method described by Mossman (1983), which gives a reflection of mitochondrial activity and cell integrity. The MTT [3-(4,5-dimethylthiazol-2-yl)-2,5-diphenyltetrazolium bromide] assay is based on the ability of a mitochondrial dehydrogenase enzyme from viable cells to cleave the tetrazolium rings of the pale yellow MTT and form dark blue formazan crystals which cannot cross cell membranes. The result is that healthy cells will accumulate more of the blue formazan crystals. […] They were then incubated for 2 h after addition of MTT (1 mg/ml) and the absorbance was read at 570 nm. […] The toxicity of the reference compound clioquinol (0.3 nM to 1 μM) was assessed under the same conditions, for comparison.
A first assessment of toxicity of the substituted phosphonates was carried out in a non-neuronal cell line, using a tetrazolium salt (MTT) colorimetric assay, based on the method described by Mossman (1983), which gives a reflection of mitochondrial activity and cell integrity (FIGS. 6 and 7). The toxicity of the reference compound clioquinol (0.3 nM to 1 μM) was assessed under the same conditions, for comparison.

For data set [2], the system named is amyloid accumulation in H4 cells. Briefly: H4 cell amyloid accumulation (6E10 antibody, HRP/OPD absorbance). Type of data set: cell-based, human.
The subject of data set [3] is intracellular amyloid in H4 cells. Briefly: intracellular distribution of amyloid in H4 cells (6E10 immunofluorescence). Type of data set: cell-based, human. As to conditions: 1 μM, 5 days incubation, single dose.
For the next data set, the system named is β-amyloid plaques. On the set-up: species or system APP and APP/Tau transgenic mice. As to conditions: mouse, in vivo.
For data set [4], the system named is H4 cells (human neuroblastoma cell line).
Setting [5] is: H4 cells, 1 μM, average of 2-3 experiments.

Read-outs that look alike come from different tables or passages of the source.

Take `Oc1c(I)cc(Cl)c2cccnc12` [Clioquinol, reference compound]: in data set [1], the “toxicity as reflected in cell viability (MTT)” value is on record as “neither clioquinol nor any of the substituted phosphonates screened showed any toxicity”. Besides, the “accumulation of amyloid in H4 cells” value in data set [2] (1 μM, 5 days) is reported as “decreases the accumulation of amyloid”. In data set [2] (setting [5]), the “amyloid reduction (% controls), 5 day repeated doses” value is 76 % controls and the “amyloid reduction (% controls), 5 day single dose” value stood at 64 % controls. Moreover, the “intracellular amyloid labelling in H4 cells” value in data set [3] is recorded as “reduced this intracellular accumulation in some of the cells, but brightly labelled areas could still be found”. In addition, in the data set with β-amyloid plaques, the “amyloid plaque load in brain” value is “apparent decreased plaque load, and especially a reduced load of large aggregates”. In addition, in data set [4] (5 days, 1 μM), the “cell survival (% controls), 5 day repeated doses” value came out at 96 % controls and the “cell survival (% controls), 5 day single dose” value is 99 % controls.

Turning to `CCOP(=O)(COc1ccccc1-c1nc2ccccc2s1)OCC` [Compound 14, Diethyl 2-(2-benzthiazolyl)phenoxymethylphosphonate], in data set [2], the “amyloid reduction (% controls), 5 day repeated doses” value was found to be 83 % controls and the “amyloid reduction (% controls), 5 day single dose” value was 100 % controls. Besides, in data set [4], the “cell survival (% controls), 5 day repeated doses” value is 110 % controls and the “cell survival (% controls), 5 day single dose” value amounted to 100 % controls.

Consider `CCOP(=O)(COc1ccc2c(c1)[nH]c1ccccc12)OCC` [Compound 17, Diethyl-2-carbazolyloxymethylphosphonate], for which, in data set [2], the “amyloid reduction (% controls), 5 day repeated doses” value is listed as 62 % controls and the “amyloid reduction (% controls), 5 day single dose” value came to 37 % controls. Also, in data set [4], the “cell survival (% controls), 5 day repeated doses” value stood at 102 % controls and the “cell survival (% controls), 5 day single dose” value is 97 % controls.

Take `O=P([O-])([O-])Cn1c2ccccc2c2ccccc21.[Na+].[Na+]` [Compound 20, Disodium N-carbazolylmethylphosphonate]: in data set [2], the “amyloid reduction (% controls), 5 day repeated doses” value is 66 % controls and the “amyloid reduction (% controls), 5 day single dose” value came out at 11 % controls. In data set [4], the “cell survival (% controls), 5 day repeated doses” value was 72 % controls; the “cell survival (% controls), 5 day single dose” value was determined as 88 % controls; the “reduction of cell viability” value worked out at 28%.

Take `CCOP(=O)(COc1ccc(NC(C)=O)cc1)OCC` [Compound 25, Diethyl 4-acetamidophenoxy methylphosphonate]: in data set [2], the “amyloid reduction (% controls), 5 day repeated doses” value is reported as 62 % controls and the “amyloid reduction (% controls), 5 day single dose” value is reported as 24 % controls. Further, in data set [4], the “cell survival (% controls), 5 day repeated doses” value turned out to be 97 % controls and the “cell survival (% controls), 5 day single dose” value is reported as 98 % controls.
